{
  "source": "patent US20240351997A1",
  "about": "“NOVEL PARP7 INHIBITOR AND USE THEREOF” (SHANGHAI QILU PHARMACEUTICAL RESEARCH AND DEVELOPMENT …, priority 2021, published 2024)",
  "data": [
    {"target": "PARP7 (Homo sapiens (Human), UniProt Q7Z3E1)", "sequence (Q7Z3E1 whole entry)": "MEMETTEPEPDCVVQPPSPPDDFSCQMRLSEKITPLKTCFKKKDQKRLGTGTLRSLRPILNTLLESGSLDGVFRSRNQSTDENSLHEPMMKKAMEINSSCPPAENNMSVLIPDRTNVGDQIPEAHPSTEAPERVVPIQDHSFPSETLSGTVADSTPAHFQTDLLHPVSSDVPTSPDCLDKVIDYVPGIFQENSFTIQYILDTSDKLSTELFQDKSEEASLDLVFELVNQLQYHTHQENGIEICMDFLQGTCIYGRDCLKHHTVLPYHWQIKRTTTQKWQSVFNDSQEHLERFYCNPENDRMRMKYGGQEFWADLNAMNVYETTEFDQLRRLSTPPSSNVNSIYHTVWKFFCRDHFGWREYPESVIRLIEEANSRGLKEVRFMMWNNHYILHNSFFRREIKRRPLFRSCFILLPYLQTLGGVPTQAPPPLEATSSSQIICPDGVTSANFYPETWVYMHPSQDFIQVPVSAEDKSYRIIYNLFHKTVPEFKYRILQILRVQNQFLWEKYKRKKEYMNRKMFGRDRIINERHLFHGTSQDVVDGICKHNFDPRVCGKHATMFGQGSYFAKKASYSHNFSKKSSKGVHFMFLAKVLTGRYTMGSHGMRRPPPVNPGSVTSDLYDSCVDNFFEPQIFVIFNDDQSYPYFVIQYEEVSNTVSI", "test": "In vitro enzymology experiment of PARP7 (enzymatic inhibition)", "type": "biochemical", "method": "II. In Vitro Enzymology Experiment of PARP2, 3, 5A, 5B, 7, 12, and 15\n1. Preparation of 384-well histone-coated plate: 25 μL of histone solution was added to each well, and the plate was incubated overnight at 4° C.\n2. Preparation of PBST buffer, blocking buffer, and assay buffer\n3. The 384-well histone-coated plate was washed three times with PBST buffer. The plate was blocked by 50 μL of blocking buffer for 1 hour at room temperature. The plate was then washed three times with PBST buffer.\n2000× compound was prepared in a 96-well source plate. 50 nL of the compound was transferred from the source plate to a 96-well intermediate plate, and 39.95 μL of assay buffer was added to each well. The plate was shaken well and centrifuged at 1000 rpm for 1 minute.\n5 μL of compound DMSO solution was transferred to each well.\nAn enzyme mixture was incubated at 25° C. for 10 minutes.\n10 μL of the enzyme mixture was added, and incubated with the compound at room temperature for 10 minutes.\n10 μL of assay buffer was added to the negative control well of the assay plate.\nThe plate was then washed three times with PBST buffer.\n25 μL of Stre-HRP was added.\nThe plate was incubated at room temperature for 1 hour and washed three times with PBS buffer.\n25 μL of QuantaRed Enhancer mix was added. The plate was incubated for 10 minutes.\n2.5 μL of QuantaRed Stop Solution was added to terminate the peroxidase reaction, and the plate was shaken for 10 to 30 seconds.\n7. Paradigm was used to read the plate immediately to detect the readings at Ex550/Em620.\nUsing equation (1) to fit the data in Excel to obtain inhibition values\nUsing equation (2) to fit the data in XL-Fit to obtain IC50 values\nY is the percentage of inhibition, and X is the compound concentration.", "units": {"IC50": "nM"}, "values": [
      {"smiles": "O=C(O[C@@H]1CCC[C@H]1c1c[nH]c(=O)c(C(F)(F)F)c1)N1CCN(c2ncc(C(F)(F)F)cn2)CC1", "note": "(single isomer, unassigned) [Example 70]", "IC50": 0.91},
      {"smiles": "COC[C@@H]1CN(c2ncc(C(F)(F)F)cn2)CCN1C(=O)OCCc1c[nH]c(=O)c(C(F)(F)F)c1", "note": "(stereo in doubt) [Example 129, 2-(6-Oxo-5-(trifluoromethyl)-1,6-dihydropyridin-3-yl)ethyl 2-(methoxymethyl)-4-(5-(trifluoromethyl)pyrimidin-2-yl)piperazine-1-carboxylate]", "IC50": 0.39},
      {"smiles": "O=C(Cc1cc(C(F)(F)F)c(=O)[nH]n1)NCC(=O)N1CCN(c2ncc(C(F)(F)F)cn2)CC1", "note": "[Example 5, N-(2-Oxo-2-(4-(5-(trifluoromethyl)pyrimidin-2-yl)piperazin-1-yl)ethyl)-2-(6-oxo-5-(trifluoromethyl)-1,6-dihydropyridazin-3-yl)acetamide]", "IC50": 5.83},
      {"smiles": "O=C(COC[C@@H]1CCCN1c1c[nH]c(=O)c(C(F)(F)F)c1)N1CCN(c2ncc(C(F)(F)F)cn2)CC1", "note": "[Example 7, (S)-5-(2-((2-Oxo-2-(4-(5-(trifluoromethyl)pyrimidin-2-yl)piperazin-1-yl)ethoxy)methyl)pyrrolidin-1-yl)-3-(trifluoromethyl)pyridin-2(1H)-one]", "IC50": 2.79},
      {"smiles": "O=C(CCOC[C@@H]1CCCN1c1c[nH]c(=O)c(C(F)(F)F)c1)N1CCN(c2ncc(C(F)(F)F)cn2)CC1", "note": "[Example 9, (S)-5-(2-((3-Oxo-3-(4-(5-(trifluoromethyl)pyrimidin-2-yl)piperazin-1-yl)propoxy)methyl)pyrrolidin-1-yl)-3-(trifluoromethyl)pyridin-2(1H)-one]", "IC50": 7.6},
      {"smiles": "O=C(CCOC[C@H]1CCCN1c1c[nH]c(=O)c(C(F)(F)F)c1)N1CCN(c2ncc(C(F)(F)F)cn2)CC1", "note": "[Example 10, (R)-5-(2-((3-Oxo-3-(4-(5-(trifluoromethyl)pyrimidin-2-yl)piperazin-1-yl)propoxy)methyl)pyrrolidin-1-yl)-3-(trifluoromethyl)pyridin-2(1H)-one]", "IC50": 6.7},
      {"smiles": "O=C(CCOCCN1CCCc2c1cn[nH]c2=O)N1CCN(c2ncc(C(F)(F)F)cn2)CC1", "note": "[Example 13, 1-(2-(3-Oxo-3-(4-(5-(trifluoromethyl)pyrimidin-2-yl)piperazin-1-yl)propoxy)ethyl)-2,3,4,6-tetrahydropyrido[2,3-d]pyridazin-5(1H)-one]", "IC50": 5.98},
      {"smiles": "O=C(CCOc1c[nH]c(=O)c(C(F)(F)F)c1)N1CCN(c2ncc(C(F)(F)F)cn2)CC1", "note": "[Example 17, 5-(3-Oxo-3-(4-(5-(trifluoromethyl)pyrimidin-2-yl)piperazin-1-yl)propoxy)-3-(trifluoromethyl)pyridin-2(1H)-one]", "IC50": 2.79},
      {"smiles": "O=C(CCOCCn1c(=O)ccc2c(=O)[nH]ncc21)N1CCN(c2ncc(C(F)(F)F)cn2)CC1", "note": "[Example 22, 1-(2-(3-Oxo-3-(4-(5-(trifluoromethyl)pyrimidin-2-yl)piperazin-1-yl)propoxy)ethyl)pyrido[2,3-d]pyridazine-2,5(1H,6H)-dione]", "IC50": 3.6},
      {"smiles": "CC(COC(=O)N1CCN(c2ncc(C(F)(F)F)cn2)CC1)c1c[nH]c(=O)c(C(F)(F)F)c1", "note": "(centres unmarked) [Example 25, 2-(6-Oxo-5-(trifluoromethyl)-1,6-dihydropyridin-3-yl)propyl 4-(5-(trifluoromethyl)pyrimidin-2-yl)piperazine-1-carboxylate]", "IC50": 0.8},
      {"smiles": "C[C@H](COC(=O)N1CCN(c2ncc(C(F)(F)F)cn2)CC1)c1c[nH]c(=O)c(C(F)(F)F)c1", "note": "[Example 26]", "IC50": 0.6},
      {"smiles": "C[C@@H](COC(=O)N1CCN(c2ncc(C(F)(F)F)cn2)CC1)c1c[nH]c(=O)c(C(F)(F)F)c1", "note": "[Example 27]", "IC50": 1.1},
      {"smiles": "O=C(CCc1c[nH]c(=O)c(C(F)(F)F)c1)N1CCN(c2ncc(C(F)(F)F)cn2)CC1", "note": "[Example 28, 5-(3-Oxo-3-(4-(5-(trifluoromethyl)pyrimidin-2-yl)piperazin-1-yl)propyl)-3-(trifluoromethyl)pyridin-2(1H)-one]", "IC50": 0.9},
      {"smiles": "O=C(OC[C@@H]1CCCN1c1c[nH]c(=O)c(C(F)(F)F)c1)N1CCN(c2ncc(C(F)(F)F)cn2)CC1", "note": "[Example 29, (S)-(1-(6-Oxo-5-(trifluoromethyl)-1,6-dihydropyridin-3-yl)pyrrolidin-2-yl)methyl 4-(5-(trifluoromethyl)pyrimidin-2-yl)piperazine-1-carboxylate]", "IC50": 5.6},
      {"smiles": "O=C(c1cccc(Cc2c[nH]c(=O)c(C(F)(F)F)c2)c1)N1CCN(c2ncc(C(F)(F)F)cn2)CC1", "note": "[Example 30, 3-(Trifluoromethyl)-5-(3-(4-(5-(trifluoromethyl)pyrimidin-2-yl)piperazine-1-carbonyl)benzyl)pyridin-2(1H)-one]", "IC50": 0.9},
      {"smiles": "O=C(CCNc1c[nH]c(=O)c(C(F)(F)F)c1)N1CCN(c2ncc(C(F)(F)F)cn2)CC1", "note": "[Example 31, 5-((3-Oxo-3-(4-(5-(trifluoromethyl)pyrimidin-2-yl)piperazin-1-yl)propyl)amino)-3-(trifluoromethyl)pyridin-2(1H)-one]", "IC50": 1.19},
      {"smiles": "O=C(NCCc1c[nH]c(=O)c(C(F)(F)F)c1)N1CCN(c2ncc(C(F)(F)F)cn2)CC1", "note": "[Example 32, N-(2-(6-Oxo-5-(trifluoromethyl)-1,6-dihydropyridin-3-yl)ethyl)-4-(5-(trifluoromethyl)pyrimidin-2-yl)piperazine-1-carboxamide]", "IC50": 0.44},
      {"smiles": "CC(Cc1c[nH]c(=O)c(C(F)(F)F)c1)OC(=O)N1CCN(c2ncc(C(F)(F)F)cn2)CC1", "note": "(centres unmarked) [Example 33, 1-(6-Oxo-5-(trifluoromethyl)-1,6-dihydropyridin-3-yl)propan-2-yl 4-(5-(trifluoromethyl)pyrimidin-2-yl)piperazine-1-carboxylate]", "IC50": 0.9},
      {"smiles": "O=C(OC[C@H]1CCCN1c1c[nH]c(=O)c(C(F)(F)F)c1)N1CCN(c2ncc(C(F)(F)F)cn2)CC1", "note": "[Example 36, (R)-(1-(6-Oxo-5-(trifluoromethyl)-1,6-dihydropyridin-3-yl)pyrrolidin-2-yl)methyl 4-(5-(trifluoromethyl)pyrimidin-2-yl)piperazine-1-carboxylate]", "IC50": 0.38},
      {"smiles": "O=C(CCCc1c[nH]c(=O)c(C(F)(F)F)c1)N1CCN(c2ncc(C(F)(F)F)cn2)CC1", "note": "[Example 37, 5-(4-Oxo-4-(4-(5-(trifluoromethyl)pyrimidin-2-yl)piperazin-1-yl)butyl)-3-(trifluoromethyl)pyridin-2(1H)-one]", "IC50": 0.9},
      {"smiles": "CC(CC(=O)N1CCN(c2ncc(C(F)(F)F)cn2)CC1)c1c[nH]c(=O)c(C(F)(F)F)c1", "note": "(centres unmarked) [Example 38, 5-(4-Oxo-4-(4-(5-(trifluoromethyl)pyrimidin-2-yl)piperazin-1-yl)butan-2-yl)-3-(trifluoromethyl)pyridin-2(1H)-one]", "IC50": 1.1},
      {"smiles": "O=C(CCO[C@H]1CCC[C@@H]1c1c[nH]c(=O)c(C(F)(F)F)c1)N1CCN(c2ncc(C(F)(F)F)cn2)CC1", "note": "[Example 39, 5-((1R,2S)-2-(3-Oxo-3-(4-(5-(trifluoromethyl)pyrimidin-2-yl)piperazin-1-yl)propoxy)cyclopentyl)-3-(trifluoromethyl)pyridin-2(1H)-one]", "IC50": 1.5},
      {"smiles": "O=C(c1cc(Cc2c[nH]c(=O)c(C(F)(F)F)c2)ccc1F)N1CCN(c2ncc(C(F)(F)F)cn2)CC1", "note": "[Example 40, 5-(4-Fluoro-3-(4-(5-(trifluoromethyl)pyrimidin-2-yl)piperazine-1-carbonyl)benzyl)-3-(trifluoromethyl)pyridin-2(1H)-one]", "IC50": 0.7}
    ]}
  ]
}
